# Experimental data published in US9198894B2, “Uses of 15-benzylidene-14-deoxy-11,12-didehydroandrographolide derivatives in the preparation of antineoplastic drugs” (Zhengzhou University, priority 2010, dated 2015).
# Where two headings read alike, the source gives them in different places. Marks after values point to notes of the source that are not given here.
# Experiments:
# [1] = test system: B16-F10 mouse melanoma cells; assay type: in vivo; details: B16-F10, C57BL/6 mice; for Lung index / Nodule number (melanoma nodules in lungs): mean ± s, n = 5
# Protocol: 1) Animals: A total of 20 C57BL/6 male mice of clean grade [Number of Animal License: SCXK (Xiang) 2009-0004], weighing 18-22 g, were purchased from Hunan Slca Jingda Experimental Animal Center Company, Ltd., China.
# 2) Cells: B16-F10 mouse melanoma cells were purchased from Nanjing KeyGen Biotech. Co. Ltd., China.
# (§1) 4) Method: B16-F10 cells in logarithmic growth phase were trypsinized, then resuspended in RPMI1640 medium containing 10% fetal bovine serum and centrifuged at 1000 rpm for 5 min. The supernatant was removed and sterile PBS was added to prepare single-cell suspension (10^7/mL). The murine melanoma lung metastasis model was established in mice via caudal vein injection of B16-F10 cells (0.2 ml/mouse). Mice were randomly divided into 4 groups (n=5) according to body weight, and 24 h later they were administrated intragastrically (ig; 0.2 ml/10 g) once a day continuously for 24 d with vehicle (tumor control group), Cyc (30 mg/kg), compound 3 at 0.85 mmol/kg and 1.10 mmol/kg. Mice were weighed and blood was collected by removing the eyeball at 24 h after the last administration. Sacrificed the mice, removed the lung and counted the number of melanoma nodules in lungs of mice under an anatomical lens. Serum obtained after centrifugation at 3000 rpm for 20 min (3K30 refrigerated centrifuge, Sigma, USA) was conserved at −20° C. Levels of TNF-α and IL-1β in serum were measured by ELISA method, which were performed in accordance with the instructions of the kits.
# Data were expressed as mean±SD and statistical analysis was performed by SPSS Statistics 17.0 using a one-way analysis of variance (ANOVA) followed by unpaired t-test. A value of P<0.05 was considered statistically significant. The inhibition ratio (IR %) of lung metastasis was calculated as follows: IR %=(Nc−Nt)/Nc×100%, where Nc is the average number of nodules in lung tissues of vehicle, and Nt is that of mice treated with drugs.
# [2] = test system: Eca-109 human esophageal carcinoma cells; test: Wound healing (two-dimensional migration) assay, Eca-109; assay type: cell-based; details: Eca-109, 10.00 μmol/l, 24 h (FIG. 1A)
# Protocol: (§2) 1) Cell lines: Cell lines of 5637 human bladder carcinoma, Eca-109 human esophageal carcinoma, HT29 human colon cancer, SGC-7901 human gastric cancer, A549 human lung adenocarcinoma and PC-3 human prostate carcinoma were purchased from the Type Culture Collection of the Chinese Academy of Sciences, Shanghai, China.
# (§3) 3) Methods: The cells were trypsinized to generate a single-cell suspension and seeded in 96-well plates (200 μl/well), and incubated with medium containing 10% fetal bovine serum at 37 in a humidified atmosphere with 5% CO2. Following a 24 h incubation, the cells were starved for an additional 12 h in low-serum media (1% FBS). The cultures of Eca-109, HT29, 5637, SGC-7901, A549 and PC-3 were then scratched away with a 200-μl plastic pipette tip and rinsed twice with PBS to remove wound-derived loose and dislodged cells. The cells were cultured in replaced medium without or with compounds at final concentrations of 0, 2.50, 5.00 and 10.00 μmol/L, respectively. At least seven randomly selected views along the scraped line in each well were photographed immediately and 24 h and 36 h after incubation using a digital camera at 50× magnification. The average scraped area in each well under each treatment condition was measured, and the percentage of inhibition against cell migration was calculated. % of inhibition=1−(A0−At)/(A′0−A′t)×100%, where, A0 and At are the areas of wound with compound treatment measured immediately and 24 or 36 h post-injury, respectively; A′0 and A′t are the areas of wound without compound treatment measured immediately and 24 or 36 h post-injury, respectively.
# [3] = assay type: in vivo, mouse; details: C57BL/6 mice, before vs 24 d after administration
# Protocol: as §1
# IL-1β = assay type: in vivo, mouse; details: C57BL/6 mice, mean ± s, n = 5
# TNF-α = assay type: in vivo, mouse; details: C57BL/6 mice, mean ± s, n = 5
# [4] = test system: A549 human lung carcinoma cells; test: Wound healing (two-dimensional migration) assay, A549; assay type: cell-based; details: A549, 10.00 μmol/l, 36 h (FIG. 1E)
# Protocol: as §2, §3
# [5] = test system: ECV304 human vascular endothelial cells; test: Two-dimensional migration of ECV304 (wound healing); assay type: cell-based; details: 10.00 μmol/L (FIG. 2A)
# [6] = test system: SGC-7901 human gastric cancer; test: Colony formation assay, SGC-7901; assay type: cell-based
# Protocol: (§4) 1) Cell lines: Cell lines of SGC-7901 human gastric cancer, A549 human lung adenocarcinoma and Hela human cervical carcinoma were purchased from the Type Culture Collection of the Chinese Academy of Sciences, Shanghai, China.
# (§5) 3) Method: Colony formation assay was used. The cells were trypsinized to generate a single-cell suspension and seeded in a 6-well plate at a density of 100 cells/well, then drug-containing medium was added to the well to make the final concentration of compound to 0, 1.25, 2.50, 5.00, 7.50, 10.00 μmol/L, respectively. The experiments were performed in duplicate, and the cells were cultured at 37 in a humidified atmosphere with 5% CO2. Terminate cell culture when the clones can be seen in the culture plate, then remove the culture medium, and wash twice with PBS, fix the cells with methanol (5 ml/well) for 15 min and stain the cells with hematoxylin-eosin stain. The number of clones which comprised more than 50 cells was counted under a TS100-F-PH microscope (Nikon Company, Japan). Calculate relative colony formation ratio (%) and the IC50 values. Relative colony formation ratio (%)=(colony number of drug-administration well/colony number of control well)×100%.
# [7] = test system: Hela human cervical carcinoma; test: Colony formation assay, Hela; assay type: cell-based; details: Hela
# Protocol: as §4, §5
# [8] = test system: A549 human lung adenocarcinoma; test: Colony formation assay, A549; assay type: cell-based
# Protocol: as §4, §5
# [9] = test system: SGC-7901 human gastric adenocarcinoma cells; test: Wound healing (two-dimensional migration) assay, SGC-7901; assay type: cell-based; details: SGC-7901, 10.00 μmol/l, 36 h (FIG. 1D)
# Protocol: as §2
# as §3, with “The cells were cultured in replaced medium without or with compounds at final concentrations of 0, 2.50, 5.00 and 10.00 μmol/L, respectively. At least seven randomly selected views along the scraped line in each well were photographed immediately and 24 h and 36 h after incubation using a digital camera at 50× magnification.” left out
# [10] = test system: 5637 human urinary bladder cancer cells; test: Wound healing (two-dimensional migration) assay, 5637; assay type: cell-based; details: 5637, 10.00 μmol/l, 24 h (FIG. 1C)
# Protocol: as §2, §3
# [11] = read-out: Inhibition against tumor cell colony formation IC50
smiles,measurement,setting,value
"C=C1CCC2C(C)(COC(=O)c3cccnc3)C(OC(=O)c3cccnc3)CCC2(C)C1C=CC1=CC(=Cc2ccc(Cl)cc2)OC1=O (stereo not shown) [Compound 3, 15-p-chlorobenzylidene-14-deoxy-11,12-didehydro-3,19-dinicotinate andrographolide]",IR (%) of lung metastasis,[1]; 0.85 mmol/kg ig 24 d,58.04%
same,IR (%) of lung metastasis,"[1]; 0.85 mmol/kg ig 24 d, listed as compound 3",58.04%
same,Lung index,[1]; 0.85 mmol/kg ig 24 d,6.19 ± 0.76 mg/g
same,Nodule number (melanoma nodules in lungs),[1]; 0.85 mmol/kg ig 24 d,35.25 ± 14.45
same,IR (%) of lung metastasis,[1]; 1.10 mmol/kg ig 24 d,65.18%
same,IR (%) of lung metastasis,"[1]; 1.10 mmol/kg ig 24 d, listed as compound 3",65.18%
same,Lung index,[1]; 1.10 mmol/kg ig 24 d,6.39 ± 0.57 mg/g
same,Nodule number (melanoma nodules in lungs),[1]; 1.10 mmol/kg ig 24 d,29.25 ± 881**^∇
same,Inhibitory effect on two-dimensional migration,[2],much stronger than that of other tumor cells
same,Average net increase in body weight,[3]; 0.85 mmol/kg ig,1.64 g
same,Average net increase in body weight,[3]; 1.10 mmol/kg ig,2.00 g
same,IL-1β in serum,IL-1β; 0.85 mmol/kg ig 24 d,30.76 ± 3.25 pg/mL
same,IL-1β in serum,IL-1β; 1.10 mmol/kg ig 24 d,17.86 ± 3.41 pg/mL
same,TNF-α in serum,TNF-α; 0.85 mmol/kg ig 24 d,0.52 ± 5.90
same,TNF-α in serum,TNF-α; 1.10 mmol/kg ig 24 d,11.11 ± 5.96
same,Inhibitory effect on two-dimensional migration,[4],much stronger than that of other tumor cells
"C=C1CCC2C(C)(CO)C(O)CCC2(C)C1C=CC1=CC(=Cc2ccc(Cl)cc2)OC1=O (stereo not shown) [Compound 2, 15-p-chlorobenzylidene-14-deoxy-11,12-didehydro-andrographolide]",Inhibition of two-dimensional migration of ECV304,[5],the most significant one
same,Inhibition of colony formation compared with andrographolide,[6],remarkably stronger than that of andrographolide
same,IC50,[6]; [11],2.1 µM
same,Inhibition of colony formation compared with andrographolide,[7],remarkably stronger than that of andrographolide
same,IC50,[7]; [11],1.38 µM
same,Inhibition of colony formation compared with andrographolide,[8],remarkably stronger than that of andrographolide
same,IC50,[8]; [11],1.42 µM
same,Inhibitory effect on two-dimensional migration,[9],much stronger than that of other tumor cells
same,Inhibitory effect on two-dimensional migration,[10],much stronger than that of other tumor cells
